Results published in BindingDB's records for doi:10.1021/jm060561m (Purdue University, 2006).

Target: T1, Dimer of Gag-Pol polyprotein [501-599,Q508K,L534I,L564I,C568A,C596A] (Human immunodeficiency virus 1, UniProt P03367, C568A/C596A/L534I/L564I/Q508K)
T1 construct: 501-599
Assay: Protease Inhibition Assay
Conditions: pH 6.4; 25 °C
Protocol: The Ki values were determined by substrate cleavage assay using fluorogenic substrate, 2-(aminobenzoyl)-Thr-Ile-Nle-Phe(p-NO2)-Gln-Arg-NH2. A standard curve relating changes in fluorescent intensity to changes in concentration of product was used to convert fluorescent changes into molar velocities. The amount of cleavage was determined by HPLC.

CC(C)CN(C[C@@H](O)[C@H](Cc1ccccc1)NC(=O)O[C@H]1C[C@H]2CCC[C@H]2C1)S(=O)(=O)c1ccc(CO)cc1 [(2R,3aR,6aS)-octahydropentalen-2-yl N-[(2S,3R)-3-hydroxy-4-{[4-(hydroxymethyl)benzene](2-methylpropyl)sulfonamido}-1-phenylbutan-2-yl]carbamate]
Ki: 5.3 nM

CC(C)CN(C[C@@H](O)[C@H](Cc1ccccc1)NC(=O)O[C@@H]1C[C@@H]2CCO[C@@H]2C1)S(=O)(=O)c1ccc(N)cc1 [(3aS,5R,6aR)-hexahydro-2H-cyclopenta[b]furan-5-yl N-[(2S,3R)-4-[(4-aminobenzene)(2-methylpropyl)sulfonamido]-3-hydroxy-1-phenylbutan-2-yl]carbamate]
Ki: 0.14 nM
